Measurements reported in the NIST ThermoML archive (doi:10.1021/je200862b).

Key:
[1] = 101 kPa, Liquid; for viscosity: Capillary tube (Ostwald / Ubbelohde) method
[2] = xn = mol fraction of the nth substance listed; conditions: 101 kPa, Liquid; for viscosity: Capillary tube (Ostwald / Ubbelohde) method

CCN(CC)c1ccccc1 [N,N-diethylaniline]
[1]
Conditions	viscosity [mPa·s]
303.15 K	1.703
313.15 K	1.402
323.15 K	1.049

[1], Vibrating tube method
Conditions	mass density [kg/m3]
303.15 K	925.98
313.15 K	917.72
323.15 K	912.8

CCN(CC)c1ccccc1 [N,N-diethylaniline] + CCC(=O)O
viscosity [mPa·s], [2]
Conditions	x2 = 0	x2 = 0.1047	x2 = 0.2096	x2 = 0.3142	x2 = 0.4164	x2 = 0.5177	x2 = 0.6097	x2 = 0.7077	x2 = 0.8123	x2 = 0.9156
303.15 K	1.703	1.801	2.04	2.404	2.91	3.663	4.04	3.968	3.26	1.532
313.15 K	1.402	1.45	1.59	1.765	2.118	2.527	2.88	2.737	2.086	1.247
323.15 K	1.049	1.068	1.173	1.315	1.555	1.865	2.1	1.949	1.51	0.9723

mass density [kg/m3], [2], Vibrating tube method
Conditions	x2 = 0	x2 = 0.1047	x2 = 0.2096	x2 = 0.3142	x2 = 0.4164	x2 = 0.5177	x2 = 0.6097	x2 = 0.7077	x2 = 0.8123	x2 = 0.9156
303.15 K	925.98	933.41	942.07	952.1	963.82	977.88	989.1	996.15	995	990.93
313.15 K	917.72	924.61	932.8	942.21	953.72	967.27	977.5	983.95	982.7	980.07
323.15 K	912.8	919.51	926.38	934.92	944.35	955.31	965.34	971.29	974.71	974.19

CN(C)c1ccccc1 [N,N-dimethylaniline]
[1]
Conditions	viscosity [mPa·s]
303.15 K	1.174
313.15 K	0.9823
323.15 K	0.8259

[1], Pycnometric method
Conditions	mass density [kg/m3]
303.15 K	948.02
313.15 K	938.5
323.15 K	930.72

CN(C)c1ccccc1 [N,N-dimethylaniline] + CCC(=O)O
viscosity [mPa·s], [2]
Conditions	x2 = 0	x2 = 0.102	x2 = 0.2054	x2 = 0.3071	x2 = 0.4092	x2 = 0.5107	x2 = 0.6178	x2 = 0.7083	x2 = 0.8023	x2 = 0.8987
303.15 K	1.174	1.27	1.329	1.386	1.446	1.494	1.545	1.534	1.457	1.225
313.15 K	0.9823	1.019	1.058	1.093	1.124	1.149	1.151	1.119	1.06	0.9646
323.15 K	0.8259	0.8432	0.8693	0.8949	0.9196	0.9397	0.9442	0.9121	0.864	0.7783

mass density [kg/m3], [2], Pycnometric method
Conditions	x2 = 0	x2 = 0.102	x2 = 0.2054	x2 = 0.3071	x2 = 0.4092	x2 = 0.5107	x2 = 0.6178	x2 = 0.7083	x2 = 0.8023	x2 = 0.8987
303.15 K	948.02	954.36	959.8	964.49	969.31	974.03	978.56	982.24	985.32	986.44
313.15 K	938.5	943.74	949.09	954.21	959.17	963.99	968.62	972.2	975.35	975.69
323.15 K	930.72	934.82	939.72	944.52	–	953.51	958	961.05	963.47	963.54

CCC(=O)O [propanoic acid]
[1]
Conditions	viscosity [mPa·s]
303.15 K	0.9496
313.15 K	0.8476
323.15 K	0.7062

[1], Pycnometric method
Conditions	mass density [kg/m3]
303.15 K	982.09
313.15 K	973.4
323.15 K	961.39

CCC(=O)O [propanoic acid] + CCN(CC)c1ccccc1
[2], x1 = 1
Conditions	viscosity [mPa·s]
303.15 K	0.9496
313.15 K	0.8476
323.15 K	0.7062

[2], Vibrating tube method, x1 = 1
Conditions	mass density [kg/m3]
303.15 K	982.09
313.15 K	973.4
323.15 K	961.39

CCC(=O)O [propanoic acid] + CN(C)c1ccccc1
[2], x1 = 1
Conditions	viscosity [mPa·s]
303.15 K	0.9496
313.15 K	0.8476
323.15 K	0.7062

[2], Pycnometric method, x1 = 1
Conditions	mass density [kg/m3]
303.15 K	982.09
313.15 K	973.4
323.15 K	961.39
